Data on 16 molecules can be found in patent publication US20170305894A1, “PPAR AGONISTS, COMPOUNDS, PHARMACEUTICAL COMPOSITIONS, AND METHODS OF USE THEREOF” (priority 2014, published 2017).

Read-outs that look alike come from different tables or passages of the source.

The target of assay [1] is T1, PPARdelta (Homo sapiens, UniProt Q03181).
T1 construct: expressed in transfected cells
T1 sequence (Q03181 1-441): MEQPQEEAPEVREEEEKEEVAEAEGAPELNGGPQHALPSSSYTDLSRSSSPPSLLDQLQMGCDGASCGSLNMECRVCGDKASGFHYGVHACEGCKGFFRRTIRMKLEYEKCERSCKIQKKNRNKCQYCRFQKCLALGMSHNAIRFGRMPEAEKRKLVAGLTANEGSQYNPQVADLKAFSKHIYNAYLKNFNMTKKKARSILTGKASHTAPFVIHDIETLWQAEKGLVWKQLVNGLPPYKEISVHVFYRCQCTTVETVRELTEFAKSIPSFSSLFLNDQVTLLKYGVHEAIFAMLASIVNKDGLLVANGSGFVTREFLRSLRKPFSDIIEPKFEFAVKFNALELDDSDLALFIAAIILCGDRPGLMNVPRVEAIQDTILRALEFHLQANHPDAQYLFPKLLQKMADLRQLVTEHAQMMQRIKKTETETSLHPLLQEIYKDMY
The assay can be described thus: NHR Protein Interaction Biosensor assay (PathHunter NHR cell lines, agonist format). It counts as cell-based. Here is the method:
(2) Nuclear Hormone Receptor (NHR) Assays
PathHunter NHR cell lines were expanded from freezer stocks according to standard procedures. Cells were seeded in a total volume of 20 μL into white walled, 384-well microplates and incubated at 37° C. for the appropriate time prior to testing. Assay media contained charcoal-dextran filtered serum to reduce the level of hormones present.
For agonist determination, cells were incubated with sample to induce response. Intermediate dilution of sample stocks was performed to generate 5× sample in assay buffer. […] Final assay vehicle concentration was 1%.
Microplates were read following signal generation with a PerkinElmer Envision™ instrument for chemiluminescent signal detection.
Compound activity was analyzed using CBIS data analysis suite (ChemInnovation, CA). For agonist mode assays, percentage activity was calculated using the following formula:
% Activity=100%×(mean RLU of test sample−mean RLU of vehicle control)/(mean MAX control ligand−mean RLU of vehicle control).

Assay [2] deals with T2, Human PPARδ (Homo sapiens, UniProt Q03181).
T2 construct: (PPARδ amino acid 128 to C-terminus); expressed in transfected cells; host or cells: CV-1 cells
T2 sequence (Q03181 128-441 limits assumed): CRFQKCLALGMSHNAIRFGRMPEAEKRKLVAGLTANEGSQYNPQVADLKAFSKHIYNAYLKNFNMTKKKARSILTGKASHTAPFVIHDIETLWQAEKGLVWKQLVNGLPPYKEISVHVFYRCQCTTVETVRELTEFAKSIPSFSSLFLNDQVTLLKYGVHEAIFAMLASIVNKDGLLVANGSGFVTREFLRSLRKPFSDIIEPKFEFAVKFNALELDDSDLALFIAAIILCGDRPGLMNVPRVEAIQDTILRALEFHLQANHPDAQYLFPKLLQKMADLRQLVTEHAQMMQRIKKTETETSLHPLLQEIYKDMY
The assay can be described thus: PPARδ activity screen: GAL4-PPARδ LBD luciferase transactivation in CV-1 cells. Format: cell-based. How it is done:
CV-1 cells were grown in DMEM+10% charcoal stripped FCS. Cells were seeded into 384-well plates the day before transfection to give a confluency of 50-80% at transfection. A total of […] containing 0.64 micrograms pCMX-PPARDelta LBD, 0.1 micrograms pCMXβGal, 0.08 micrograms pGLMH2004 reporter and 0.02 micrograms pCMX empty vector was transfected per well using FuGene transfection reagent according to the manufacturer's instructions (Roche). Cells were allowed to express protein for 48 h followed by addition of compound.
Human PPARδ was used to PCR amplify the PPARδ LBD. […] Ensuing fusions were verified by sequencing.
Compounds: All compounds were dissolved in DMSO and diluted 1:1000 upon addition to the cells. Compounds were tested in quadruple in concentrations ranging from 0.001 to 100 μM. Cells were treated with compound for 24 h followed by luciferase assay. Each compound was tested in at least two separate experiments.
The activity of a compound is calculated as fold induction compared to an untreated sample. For each compound the efficacy (maximal activity) is given as a relative activity compared to GW501516, a PPARδ agonist. […] EC50 values were calculated via non-linear regression using GraphPad PRISM (GraphPad Software, San Diego, Calif.).

The mark [3] stands for this setting: PathHunter NHR cells, agonist format, read-out: NHR Protein Interaction Biosenor assay, PPARdelta EC50.
The mark [4] stands for this setting: CV-1 cells, GAL4-PPARδ LBD luciferase reporter, compound for 24 h, read-out: PPAR delta transactivation EC50.

Turning to `Cc1cnc(-c2ccc(-c3ccco3)cc2)n1Cc1ccccc1OCCCCCC(=O)O` [Compound 8a, 6-(2-((2-(4-(furan-2-yl)phenyl)-5-methyl-1H-imidazol-1-yl)methyl)phenoxy) hexanoic acid], the EC50 in assay [1] (setting [3]) is less than 0.51 nM; in assay [2] (setting [4]), 0.9 nM.

`Cc1ccc(-c2ccc(-c3ncc(C)n3Cc3ccccc3OCCCCCC(=O)O)cc2)o1` [Compound 8b, 6-(2-((5-methyl-2-(4-(5-methylfuran-2-yl)phenyl)-1H-imidazol-1-yl)methyl)phenoxy)hexanoic acid]: the results for the EC50 in assay [1] (setting [3]) and in assay [2] (setting [4]) were 0.58 nM and 1.2 nM, respectively.

Turning to `Cc1cnc(-c2ccc(-c3ccco3)cc2)n1Cc1ccccc1OCCCCC(C)(C)C(=O)O` [Compound 8d, 6-(2-((2-(4-(furan-2-yl)phenyl)-5-methyl-1H-imidazol-1-yl)methyl)phenoxy)-2,2-dimethylhexanoic acid], the EC50 in assay [1] (setting [3]) amounted to 0.84 nM; in assay [2] (setting [4]), 4.5 nM.

`C/C(=C\COc1ccccc1Cn1c(C)cnc1-c1ccc(-c2ccco2)cc1)CCC(=O)O` [Compound 8e, (E)-6-(2-((2-(4-(furan-2-yl)phenyl)-5-methyl-1H-imidazol-1-yl)methyl)phenoxy)-4-methylhex-4-enoic acid]: the EC50 in assay [1] (setting [3]) was 0.79 nM; in assay [2] (setting [4]), 1 nM.

Consider `Cc1cnc(-c2ccc(C#CC(F)(F)F)cc2)n1Cc1ccccc1OCCCCCC(=O)O` [Compound 8g, 6-(2-((5-methyl-2-(4-(3,3,3-trifluoroprop-1-yn-1-yl)phenyl)-1H-imidazol-1-yl)methyl)phenoxy)hexanoic acid], for which the EC50 stood at 0.65 nM in assay [1] (setting [3]) and 8.3 nM in assay [2] (setting [4]).

On to `Cc1cnc(-c2ccc(OC(F)(F)F)cc2)n1Cc1ccccc1OCCCCCC(=O)O` [Compound 8h, 6-(2-((5-methyl-2-(4-(trifluoromethoxy)phenyl)-1H-imidazol-1-yl)methyl)phenoxy)hexanoic acid], for which the EC50 in assay [1] (setting [3]) came to 1.49 nM; in assay [2] (setting [4]) it was 0.94 nM.

Consider `Cc1cn(Cc2ccccc2OCCCCCC(=O)O)c(-c2ccc(-c3ccco3)cc2)n1` [Compound 8i, 6-(2-((2-(4-(furan-2-yl)phenyl)-4-methyl-1H-imidazol-1-yl)methyl)phenoxy) hexanoic acid], for which the EC50 in assay [1] came to 13.4 nM; in assay [2] (setting [4]), 15.7 nM.

As to `Cc1cn(Cc2ccccc2OCCCCCC(=O)O)c(-c2ccc(-c3ccc(C)o3)cc2)n1` [Compound 8j, 6-(2-((4-methyl-2-(4-(5-methylfuran-2-yl)phenyl)-1H-imidazol-1-yl)methyl)phenoxy)hexanoic acid], the values for the EC50 in assay [1] (setting [3]) and in assay [2] (setting [4]) were 5.01 nM and 56 nM, respectively.

For the molecule `Cc1cn(Cc2ccccc2OCCCCC(C)(C)C(=O)O)c(-c2ccc(-c3ccco3)cc2)n1` [Compound 8k, 6-(2-((2-(4-(furan-2-yl)phenyl)-4-methyl-1H-imidazol-1-yl)methyl)phenoxy)-2,2-dimethylhexanoic acid], the EC50 in assay [1] (setting [3]) turned out to be 16.5 nM; in assay [2] (setting [4]) it was 58 nM.

As for `O=C(O)CCCCCOc1ccccc1Cn1ccnc1-c1ccc(-c2ccco2)cc1` [Compound 8l, 6-(2-((2-(4-(furan-2-yl)phenyl)-1H-imidazol-1-yl)methyl)phenoxy)hexanoic acid], the EC50 in assay [1] (setting [3]) stood at 1.28 nM; in assay [2] (setting [4]) it was 9.5 nM.

Consider `Cc1nc(-c2ccc(-c3ccco3)cc2)c(Cc2ccccc2OCCCCCC(=O)O)s1` [Compound 8m, 6-(2-((4-(4-(furan-2-yl)phenyl)-2-methylthiazol-5-yl)methyl)phenoxy) hexanoic acid], for which the values for the EC50 in assay [1] and in assay [2] were 1.27 nM and 18 nM, respectively.

Turning to `Cn1cc(Cc2ccccc2OCCCCCC(=O)O)c(-c2ccc(-c3ccco3)cc2)n1` [Compound 8n, 6-(2-((3-(4-(furan-2-yl)phenyl)-1-methyl-1H-pyrazol-4-yl)methyl)phenoxy)hexanoic acid], the EC50 in assay [1] is 19.9 nM; in assay [2], 117 nM.

Consider `C/C(=C\COc1ccccc1Cc1c(C)noc1-c1ccc(-c2ccco2)cc1)CCC(=O)O` [Compound 8o, (E)-6-(2-((5-(4-(furan-2-yl)phenyl)-3-methylisoxazol-4-yl)methyl)phenoxy)-4-methylhex-4-enoic acid], for which the EC50 in assay [1] is 9.12 nM; in assay [2] it was 2.9 nM.

Take `C/C(=C\COc1ccccc1Cc1c(C)n[nH]c1-c1ccc(-c2ccco2)cc1)CCC(=O)O` [Compound 8p, (E)-6-(2-((5-(4-(furan-2-yl)phenyl)-3-methyl-1H-pyrazol-4-yl)methyl)phenoxy)-4-methylhex-4-enoic acid]: the EC50 in assay [1] was found to be 4.97 nM; in assay [2], 1.2 nM.

For `Cc1cnc(-c2ccc(-c3ccco3)cc2)n1Cc1ccccc1CCCCCCC(=O)O` [Compound 8q, 7-(2-((2-(4-(furan-2-yl)phenyl)-5-methyl-1H-imidazol-1-yl)methyl)phenyl)heptanoic acid], the EC50 was 13 nM in assay [1] (setting [3]) and 3.1 nM in assay [2] (setting [4]).

Regarding `C/C(=C\COc1ccccc1Cn1c(C)cnc1-c1ccc(Cl)nc1)CCC(=O)O` [Compound 8r, (E)-6-(2-((2-(6-chloropyridin-3-yl)-5-methyl-1H-imidazol-1-yl)methyl)phenoxy)-4-methylhex-4-enoic acid], in assay [2] (setting [4]), the EC50 was 5.5 nM.
